# Results as given in patent US20160326142A1, “PYRAZOLE CARBOXAMIDE COMPOUNDS, COMPOSITIONS AND METHODS OF USE” (Genentech, Inc., priority 2012, published 2016).
# Molecular target: T1, ITK (Homo sapiens, UniProt Q08881)
# T1 construct: purchased Invitrogen PV3875
# T1 sequence (Q08881 1-620): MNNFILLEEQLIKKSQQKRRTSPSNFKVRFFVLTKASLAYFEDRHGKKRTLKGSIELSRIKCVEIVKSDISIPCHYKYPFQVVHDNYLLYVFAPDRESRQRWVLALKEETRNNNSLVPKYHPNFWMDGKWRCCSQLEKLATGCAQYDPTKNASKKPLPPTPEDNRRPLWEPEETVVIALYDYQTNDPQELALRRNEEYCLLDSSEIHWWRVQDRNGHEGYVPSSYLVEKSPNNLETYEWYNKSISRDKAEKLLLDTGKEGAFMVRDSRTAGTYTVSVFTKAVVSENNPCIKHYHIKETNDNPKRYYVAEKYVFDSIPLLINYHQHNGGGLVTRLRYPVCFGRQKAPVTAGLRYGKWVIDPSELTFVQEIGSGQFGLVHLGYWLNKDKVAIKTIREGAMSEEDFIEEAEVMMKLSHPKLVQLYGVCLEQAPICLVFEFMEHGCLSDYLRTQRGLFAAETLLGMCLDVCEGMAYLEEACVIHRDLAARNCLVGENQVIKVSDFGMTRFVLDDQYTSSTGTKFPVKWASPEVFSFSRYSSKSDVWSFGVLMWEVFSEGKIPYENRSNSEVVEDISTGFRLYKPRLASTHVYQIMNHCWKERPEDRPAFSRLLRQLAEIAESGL
# Test: ITK enzyme assay (Caliper or LCMS peptide phosphorylation)
# Type: biochemical
# Conditions: purified ITK (Invitrogen PV3875), 20 μM ATP, Ki by Morrison's quadratic equation
# In short: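 Purified human ITK peptide phosphorylation, quenched with EDTA (50 mM final) for Caliper LabChip separation or TCA (5% v/v final) for UPLC-MS/MS MRM quantification. Ki derived via Morrison tight-binding equation, corrected for competitive inhibition using ATP concentration relative to Km,app.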
row,SMILES,Ki [nM]
1,"CC1(C)CCc2c(C(=O)Nc3cnn(C(c4nccs4)C4CCS(=O)(=O)CC4)c3)n[nH]c2C1 (single isomer, unassigned) [Example 87a, N-(1-((1,1-dioxidotetrahydro-2H-thiopyran-4-yl)(thiazol-2-yl)methyl)-1H-pyrazol-4-yl)-6,6-dimethyl-4,5,6,7-tetrahydro-1H-indazole-3-carboxamide]",0.4
2,"CC1(C)CCc2c(C(=O)Nc3cnn(C(c4nccs4)C4CCS(=O)(=O)CC4)c3)n[nH]c2C1 (single isomer, unassigned) [Example 87b, N-(1-((1,1-dioxidotetrahydro-2H-thiopyran-4-yl)(thiazol-2-yl)methyl)-1H-pyrazol-4-yl)-6,6-dimethyl-4,5,6,7-tetrahydro-1H-indazole-3-carboxamide]",1
3,"CC1(C)CCc2c(C(=O)Nc3cnn(C(c4cccnc4)C4CCOCC4)c3)n[nH]c2C1 (single isomer, unassigned) [Example 88a, 6,6-dimethyl-N-(1-(pyridin-3-yl(tetrahydro-2H-pyran-4-yl)methyl)-1H-pyrazol-4-yl)-4,5,6,7-tetrahydro-1H-indazole-3-carboxamide]",0.1
4,"CC1(C)CCc2c(C(=O)Nc3cnn(C(c4cccnc4)C4CCOCC4)c3)n[nH]c2C1 (single isomer, unassigned) [Example 88b, 6,6-dimethyl-N-(1-(pyridin-3-yl(tetrahydro-2H-pyran-4-yl)methyl)-1H-pyrazol-4-yl)-4,5,6,7-tetrahydro-1H-indazole-3-carboxamide]",0.7
5,"CC1(C)CCc2c(C(=O)Nc3cnn(C(c4ccccc4)C4CS(=O)(=O)C4)c3)n[nH]c2C1 (single isomer, unassigned) [Example 89a]",0.2
6,"CC1(C)CCc2c(C(=O)Nc3cnn(C(c4ccccc4)C4CS(=O)(=O)C4)c3)n[nH]c2C1 (single isomer, unassigned) [Example 89b]",4
7,"CC1(C)Cc2[nH]nc(C(=O)Nc3cnn(Cc4ccccc4)c3)c2CC1C#N (single isomer, unassigned) [Example 90a, N-(1-benzyl-1H-pyrazol-4-yl)-5-cyano-6,6-dimethyl-4,5,6,7-tetrahydro-1H-indazole-3-carboxamide]",570
8,"CC1(C)Cc2[nH]nc(C(=O)Nc3cnn(Cc4ccccc4)c3)c2CC1C#N (single isomer, unassigned) [Example 90b, N-(1-benzyl-1H-pyrazol-4-yl)-5-cyano-6,6-dimethyl-4,5,6,7-tetrahydro-1H-indazole-3-carboxamide]",10
9,"CC(c1cnn(C)c1)n1cc(NC(=O)c2n[nH]c3c2CCC(C)(C)C3)cn1 (single isomer, unassigned) [Example 91a, 6,6-dimethyl-N-(1-(1-(1-methyl-1H-pyrazol-4-yl)ethyl)-1H-pyrazol-4-yl)-4,5,6,7-tetrahydro-1H-indazole-3-carboxamide]",11
10,"CC(c1cnn(C)c1)n1cc(NC(=O)c2n[nH]c3c2CCC(C)(C)C3)cn1 (single isomer, unassigned) [Example 91b, 6,6-dimethyl-N-(1-(1-(1-methyl-1H-pyrazol-4-yl)ethyl)-1H-pyrazol-4-yl)-4,5,6,7-tetrahydro-1H-indazole-3-carboxamide]",19
11,"CC(c1nccs1)n1cc(NC(=O)c2n[nH]c3c2CCC(C)(C)C3)cn1 (single isomer, unassigned) [Example 92a, 6,6-dimethyl-N-(1-(1-(thiazol-2-yl)ethyl)-1H-pyrazol-4-yl)-4,5,6,7-tetrahydro-1H-indazole-3-carboxamide]",7
12,"CC(c1nccs1)n1cc(NC(=O)c2n[nH]c3c2CCC(C)(C)C3)cn1 (single isomer, unassigned) [Example 92b, 6,6-dimethyl-N-(1-(1-(thiazol-2-yl)ethyl)-1H-pyrazol-4-yl)-4,5,6,7-tetrahydro-1H-indazole-3-carboxamide]",10
13,"CC12Cc3[nH]nc(C(=O)Nc4cnn(C(CS(C)(=O)=O)c5cccnc5)c4)c3CC1C2 (single isomer, unassigned) [Example 93a, 5a-methyl-N-(1-(2-(methylsulfonyl)-1-(pyridin-3-yl)ethyl)-1H-pyrazol-4-yl)-1,4,4a,5,5a,6-hexahydrocyclopropa[f]indazole-3-carboxamide]",< 0.1
14,"CC12Cc3[nH]nc(C(=O)Nc4cnn(C(CS(C)(=O)=O)c5cccnc5)c4)c3CC1C2 (single isomer, unassigned) [Example 93b, 5a-methyl-N-(1-(2-(methylsulfonyl)-1-(pyridin-3-yl)ethyl)-1H-pyrazol-4-yl)-1,4,4a,5,5a,6-hexahydrocyclopropa[f]indazole-3-carboxamide]",1
15,"CC1(C)Cc2[nH]nc(C(=O)Nc3cnn(C(c4ccccc4)C4CCS(=O)(=O)CC4)c3)c2C1 (single isomer, unassigned) [Example 94a, N-(1-((1,1-dioxidotetrahydro-2H-thiopyran-4-yl)(phenyl)methyl)-1H-pyrazol-4-yl)-5,5-dimethyl-1,4,5,6-tetrahydrocyclopenta[c]pyrazole-3-carboxamide]",0.3
16,"CC1(C)Cc2[nH]nc(C(=O)Nc3cnn(C(c4ccccc4)C4CCS(=O)(=O)CC4)c3)c2C1 (single isomer, unassigned) [Example 94b, N-(1-((1,1-dioxidotetrahydro-2H-thiopyran-4-yl)(phenyl)methyl)-1H-pyrazol-4-yl)-5,5-dimethyl-1,4,5,6-tetrahydrocyclopenta[c]pyrazole-3-carboxamide]",13
17,"CC1(C)Cc2[nH]nc(C(=O)Nc3cnn(Cc4ccccc4)c3)c2CC1CO (single isomer, unassigned) [Example 95a, N-(1-benzyl-1H-pyrazol-4-yl)-5-(hydroxymethyl)-6,6-dimethyl-4,5,6,7-tetrahydro-1H-indazole-3-carboxamide]",5
18,"CC1(C)Cc2[nH]nc(C(=O)Nc3cnn(Cc4ccccc4)c3)c2CC1CO (single isomer, unassigned) [Example 95b, N-(1-benzyl-1H-pyrazol-4-yl)-5-(hydroxymethyl)-6,6-dimethyl-4,5,6,7-tetrahydro-1H-indazole-3-carboxamide]",320
19,"CN(C)CC(c1ccccc1)n1cc(NC(=O)c2n[nH]c3c2CC(C)(C)C3)cn1 (single isomer, unassigned) [Example 96a, N-(1-(2-(dimethylamino)-1-phenylethyl)-1H-pyrazol-4-yl)-5,5-dimethyl-1,4,5,6-tetrahydrocyclopenta[c]pyrazole-3-carboxamide]",57
20,"CN(C)CC(c1ccccc1)n1cc(NC(=O)c2n[nH]c3c2CC(C)(C)C3)cn1 (single isomer, unassigned) [Example 96b, N-(1-(2-(dimethylamino)-1-phenylethyl)-1H-pyrazol-4-yl)-5,5-dimethyl-1,4,5,6-tetrahydrocyclopenta[c]pyrazole-3-carboxamide]",2
21,"CC1(C)Cc2[nH]nc(C(=O)Nc3cnn(C(CS(C)(=O)=O)c4cccnc4)c3)c2C1 (single isomer, unassigned) [Example 97a, 5,5-dimethyl-N-(1-(2-(methylsulfonyl)-1-(pyridin-3-yl)ethyl)-1H-pyrazol-4-yl)-1,4,5,6-tetrahydrocyclopenta[c]pyrazole-3-carboxamide]",2
